Here are results for eight compounds from ChEMBL document CHEMBL1201862, “PubChem BioAssay data set” (2004).

Molecules are shown by their SMILES. The source made the active and inactive calls.

In test [1] the target is T1, Replicative DNA helicase DnaB (Mycobacterium tuberculosis, UniProt P9WMR3).
T1 sequence (P9WMR3 whole entry): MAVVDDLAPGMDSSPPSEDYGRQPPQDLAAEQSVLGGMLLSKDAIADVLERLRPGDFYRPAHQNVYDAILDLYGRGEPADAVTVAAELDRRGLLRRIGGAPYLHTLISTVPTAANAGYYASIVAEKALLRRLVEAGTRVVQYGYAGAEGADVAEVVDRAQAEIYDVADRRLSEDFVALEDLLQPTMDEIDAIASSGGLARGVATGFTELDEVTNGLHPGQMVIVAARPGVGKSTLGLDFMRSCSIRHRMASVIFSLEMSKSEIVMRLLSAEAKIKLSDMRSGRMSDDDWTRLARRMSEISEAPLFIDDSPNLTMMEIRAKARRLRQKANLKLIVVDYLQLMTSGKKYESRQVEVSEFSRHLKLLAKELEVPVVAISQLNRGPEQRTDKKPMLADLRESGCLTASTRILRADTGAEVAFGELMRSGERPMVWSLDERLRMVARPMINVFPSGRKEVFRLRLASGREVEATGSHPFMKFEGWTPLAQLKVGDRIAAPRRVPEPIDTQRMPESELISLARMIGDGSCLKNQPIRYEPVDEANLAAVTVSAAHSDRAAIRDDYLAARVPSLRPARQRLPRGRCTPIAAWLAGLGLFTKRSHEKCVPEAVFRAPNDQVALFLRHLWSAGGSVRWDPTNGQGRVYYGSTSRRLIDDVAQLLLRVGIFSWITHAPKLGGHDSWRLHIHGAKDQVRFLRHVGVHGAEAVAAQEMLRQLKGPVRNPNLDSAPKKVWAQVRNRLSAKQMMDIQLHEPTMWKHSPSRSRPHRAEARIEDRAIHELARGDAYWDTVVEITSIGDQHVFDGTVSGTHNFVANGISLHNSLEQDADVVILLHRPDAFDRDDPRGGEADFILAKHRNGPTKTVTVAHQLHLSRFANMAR
In words: DnaB intein splicing inhibitors, dose response, biochemical, cell-free fluorescence (AID 449749). In kind it is functional.

The target of test [2] is T2, Protein RecA (Mycobacterium tuberculosis, UniProt P9WHJ3).
T2 sequence (P9WHJ3 whole entry): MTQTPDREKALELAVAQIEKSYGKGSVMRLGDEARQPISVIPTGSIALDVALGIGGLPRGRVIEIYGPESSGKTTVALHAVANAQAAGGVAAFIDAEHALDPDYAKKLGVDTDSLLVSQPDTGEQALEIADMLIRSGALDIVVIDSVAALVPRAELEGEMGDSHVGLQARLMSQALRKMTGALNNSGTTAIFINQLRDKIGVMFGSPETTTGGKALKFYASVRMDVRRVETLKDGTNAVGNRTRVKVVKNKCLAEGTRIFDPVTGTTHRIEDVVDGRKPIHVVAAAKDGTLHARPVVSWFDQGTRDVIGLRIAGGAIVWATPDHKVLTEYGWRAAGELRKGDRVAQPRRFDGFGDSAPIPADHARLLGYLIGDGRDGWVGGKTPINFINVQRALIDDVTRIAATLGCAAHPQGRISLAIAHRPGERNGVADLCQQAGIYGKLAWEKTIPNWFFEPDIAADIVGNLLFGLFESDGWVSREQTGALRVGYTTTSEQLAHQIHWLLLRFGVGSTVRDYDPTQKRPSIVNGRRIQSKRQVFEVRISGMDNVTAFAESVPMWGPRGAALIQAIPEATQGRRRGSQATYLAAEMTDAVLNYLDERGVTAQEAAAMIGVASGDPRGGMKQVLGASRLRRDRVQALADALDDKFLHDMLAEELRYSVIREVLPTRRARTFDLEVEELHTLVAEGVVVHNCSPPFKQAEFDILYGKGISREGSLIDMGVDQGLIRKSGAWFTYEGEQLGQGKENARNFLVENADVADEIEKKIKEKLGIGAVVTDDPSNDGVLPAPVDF
In words: Fluorescence Cell-Free Homogeneous Dose Retest to Identify Inhibitors of RecA-Intein Splicing Activity. [Related pubchem assays (depositor defined):AID2097, AID2223, AID489010, AID492950]. In kind it is functional.

Test [3] deals with Genome polyprotein (dengue virus type 2, UniProt P29990). In words: Dengue-2 NS5 methyltransferase inhibitors, primary screen, biochemical, confirmation dose response (AID 588689). It counts as functional.
The nature of test [4]: HEp-2 cell cytotoxicity, dose response, cytotoxicity control for RSV inhibitor project, HTS (AID 2410). In kind it is functional. Particulars: human respiratory syncytial virus.
In test [5] the test system is Vero. Kind of test: cells. In kind it is functional. To be noted: Chlorocebus sabaeus.
Test [6] concerns the target T3, Rac GTPase-activating protein 1 (Homo sapiens, UniProt Q9H0H5).
T3 sequence (Q9H0H5 whole entry): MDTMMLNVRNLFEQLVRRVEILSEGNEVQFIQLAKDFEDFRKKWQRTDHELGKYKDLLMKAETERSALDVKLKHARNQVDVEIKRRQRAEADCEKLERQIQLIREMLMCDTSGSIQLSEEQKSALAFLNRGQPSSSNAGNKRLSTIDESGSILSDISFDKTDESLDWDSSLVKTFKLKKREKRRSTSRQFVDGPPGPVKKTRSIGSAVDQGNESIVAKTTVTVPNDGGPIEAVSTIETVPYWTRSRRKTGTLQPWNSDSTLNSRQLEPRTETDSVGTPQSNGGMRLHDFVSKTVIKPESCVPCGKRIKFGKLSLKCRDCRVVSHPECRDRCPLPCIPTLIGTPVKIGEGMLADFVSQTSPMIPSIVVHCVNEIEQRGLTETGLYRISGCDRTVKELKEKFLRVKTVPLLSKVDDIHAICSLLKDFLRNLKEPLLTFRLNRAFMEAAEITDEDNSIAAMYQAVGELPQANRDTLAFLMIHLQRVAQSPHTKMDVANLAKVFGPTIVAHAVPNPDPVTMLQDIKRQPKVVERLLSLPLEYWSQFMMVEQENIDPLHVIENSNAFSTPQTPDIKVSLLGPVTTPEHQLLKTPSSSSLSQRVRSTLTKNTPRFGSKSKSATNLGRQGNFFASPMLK
In words: MgcRacGAP GTPase-activating activity inhibitors, confirmation, biochemical, ADP Hunter fluorescence, primary and confirmatory (AID 624330). It counts as functional.

Test [7] concerns the target T4, Sentrin-specific protease 6 (Homo sapiens, UniProt Q9GZR1).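 Also: Luminescence-based dose-response confirmatory assay of SENP6 inhibition, following up an ultra-high-throughput screen.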
T4 sequence (Q9GZR1 whole entry): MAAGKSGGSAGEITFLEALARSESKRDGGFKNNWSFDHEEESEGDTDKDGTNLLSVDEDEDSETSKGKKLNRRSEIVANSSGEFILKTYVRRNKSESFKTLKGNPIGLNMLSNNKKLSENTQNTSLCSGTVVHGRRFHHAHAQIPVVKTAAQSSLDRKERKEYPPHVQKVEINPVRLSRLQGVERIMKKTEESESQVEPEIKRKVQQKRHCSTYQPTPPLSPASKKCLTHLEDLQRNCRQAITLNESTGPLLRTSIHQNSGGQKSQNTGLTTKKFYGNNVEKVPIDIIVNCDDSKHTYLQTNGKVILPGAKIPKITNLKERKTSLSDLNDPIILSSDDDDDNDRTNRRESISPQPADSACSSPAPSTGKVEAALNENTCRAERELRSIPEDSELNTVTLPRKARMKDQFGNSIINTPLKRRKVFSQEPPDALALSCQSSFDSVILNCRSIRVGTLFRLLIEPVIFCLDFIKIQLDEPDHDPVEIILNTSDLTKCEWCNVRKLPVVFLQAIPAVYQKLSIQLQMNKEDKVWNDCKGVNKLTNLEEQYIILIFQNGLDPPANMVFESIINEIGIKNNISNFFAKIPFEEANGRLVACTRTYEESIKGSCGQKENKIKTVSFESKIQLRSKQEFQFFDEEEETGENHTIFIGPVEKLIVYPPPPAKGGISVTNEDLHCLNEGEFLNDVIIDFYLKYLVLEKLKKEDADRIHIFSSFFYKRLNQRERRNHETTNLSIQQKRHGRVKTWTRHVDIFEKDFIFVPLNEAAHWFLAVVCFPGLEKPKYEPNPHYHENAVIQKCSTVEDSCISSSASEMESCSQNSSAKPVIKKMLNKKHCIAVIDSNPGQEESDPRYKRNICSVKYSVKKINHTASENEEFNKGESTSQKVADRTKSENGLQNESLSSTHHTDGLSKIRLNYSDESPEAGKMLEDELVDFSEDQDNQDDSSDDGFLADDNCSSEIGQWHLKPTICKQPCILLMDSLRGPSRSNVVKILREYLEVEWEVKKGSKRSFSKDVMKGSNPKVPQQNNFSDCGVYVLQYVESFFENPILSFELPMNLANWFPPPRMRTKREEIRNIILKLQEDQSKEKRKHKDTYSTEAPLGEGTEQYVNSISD
In kind it is functional.

In test [8] the target is T5, Sentrin-specific protease 8 (Homo sapiens, UniProt Q96LD8).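 Also: luminescence read-out of SENP8 inhibition, dose-response confirmation following an ultra-high-throughput screen.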
T5 sequence (Q96LD8 whole entry): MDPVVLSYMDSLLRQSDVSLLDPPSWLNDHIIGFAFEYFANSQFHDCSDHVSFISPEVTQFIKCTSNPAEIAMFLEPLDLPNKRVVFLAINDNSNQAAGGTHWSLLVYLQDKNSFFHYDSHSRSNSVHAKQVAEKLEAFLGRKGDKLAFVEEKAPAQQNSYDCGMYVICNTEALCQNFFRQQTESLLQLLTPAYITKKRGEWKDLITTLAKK
It counts as functional.

For test [9], the target named is T6, Sentrin-specific protease 7 (Homo sapiens, UniProt Q9BQF6).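 Also: Luminescence-based dose-response confirmation of ultra-high-throughput screening hits, measuring inhibition of SENP7.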
T6 sequence (Q9BQF6 whole entry): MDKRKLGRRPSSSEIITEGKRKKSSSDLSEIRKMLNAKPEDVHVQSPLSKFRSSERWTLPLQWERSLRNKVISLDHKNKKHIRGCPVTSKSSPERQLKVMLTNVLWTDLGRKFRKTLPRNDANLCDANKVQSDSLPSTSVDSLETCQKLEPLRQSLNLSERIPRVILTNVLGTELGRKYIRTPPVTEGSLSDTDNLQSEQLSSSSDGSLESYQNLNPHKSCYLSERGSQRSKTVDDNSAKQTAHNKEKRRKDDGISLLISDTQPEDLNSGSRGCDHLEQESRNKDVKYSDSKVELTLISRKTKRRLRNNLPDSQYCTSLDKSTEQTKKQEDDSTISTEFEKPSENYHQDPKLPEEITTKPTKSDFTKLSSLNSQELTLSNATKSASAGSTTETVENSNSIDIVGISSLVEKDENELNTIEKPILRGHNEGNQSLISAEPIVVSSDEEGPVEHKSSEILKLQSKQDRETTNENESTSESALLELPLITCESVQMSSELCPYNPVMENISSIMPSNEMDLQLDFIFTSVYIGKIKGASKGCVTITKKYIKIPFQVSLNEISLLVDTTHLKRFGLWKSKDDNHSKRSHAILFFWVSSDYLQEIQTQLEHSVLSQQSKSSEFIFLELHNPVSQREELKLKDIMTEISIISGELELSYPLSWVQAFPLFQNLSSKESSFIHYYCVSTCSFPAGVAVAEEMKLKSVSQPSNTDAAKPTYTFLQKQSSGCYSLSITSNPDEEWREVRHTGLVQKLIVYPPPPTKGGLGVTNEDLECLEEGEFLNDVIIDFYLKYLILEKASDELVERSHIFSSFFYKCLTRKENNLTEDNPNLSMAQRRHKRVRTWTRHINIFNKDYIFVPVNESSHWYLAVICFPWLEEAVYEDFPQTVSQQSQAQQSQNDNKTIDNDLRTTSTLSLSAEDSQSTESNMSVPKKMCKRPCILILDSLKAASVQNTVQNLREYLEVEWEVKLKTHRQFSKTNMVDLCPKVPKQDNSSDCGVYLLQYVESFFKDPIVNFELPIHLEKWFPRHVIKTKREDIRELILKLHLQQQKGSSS
It counts as functional.

Test [10] has as its target T7, Caspase-3 (Homo sapiens, UniProt P42574).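 Also: Dose-response selectivity test against caspase-3 for candidate inhibitors of sentrin-specific proteases (SENPs).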
T7 sequence (P42574 whole entry): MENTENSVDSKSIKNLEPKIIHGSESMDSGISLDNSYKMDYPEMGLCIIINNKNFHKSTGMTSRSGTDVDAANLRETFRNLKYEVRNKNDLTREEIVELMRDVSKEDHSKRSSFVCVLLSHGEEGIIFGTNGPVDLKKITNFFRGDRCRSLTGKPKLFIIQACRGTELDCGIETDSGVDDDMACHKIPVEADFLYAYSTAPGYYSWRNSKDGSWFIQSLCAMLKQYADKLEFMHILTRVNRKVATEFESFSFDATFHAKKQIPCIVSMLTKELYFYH
In kind it is functional.

Test [11] has as its target Cytochrome P450 2D6 (Homo sapiens, UniProt P10635).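 Also: CYP2D6 member of a cytochrome P450 panel assay.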

Genome polyprotein, sequence (P29990 2492-3391 limits assumed): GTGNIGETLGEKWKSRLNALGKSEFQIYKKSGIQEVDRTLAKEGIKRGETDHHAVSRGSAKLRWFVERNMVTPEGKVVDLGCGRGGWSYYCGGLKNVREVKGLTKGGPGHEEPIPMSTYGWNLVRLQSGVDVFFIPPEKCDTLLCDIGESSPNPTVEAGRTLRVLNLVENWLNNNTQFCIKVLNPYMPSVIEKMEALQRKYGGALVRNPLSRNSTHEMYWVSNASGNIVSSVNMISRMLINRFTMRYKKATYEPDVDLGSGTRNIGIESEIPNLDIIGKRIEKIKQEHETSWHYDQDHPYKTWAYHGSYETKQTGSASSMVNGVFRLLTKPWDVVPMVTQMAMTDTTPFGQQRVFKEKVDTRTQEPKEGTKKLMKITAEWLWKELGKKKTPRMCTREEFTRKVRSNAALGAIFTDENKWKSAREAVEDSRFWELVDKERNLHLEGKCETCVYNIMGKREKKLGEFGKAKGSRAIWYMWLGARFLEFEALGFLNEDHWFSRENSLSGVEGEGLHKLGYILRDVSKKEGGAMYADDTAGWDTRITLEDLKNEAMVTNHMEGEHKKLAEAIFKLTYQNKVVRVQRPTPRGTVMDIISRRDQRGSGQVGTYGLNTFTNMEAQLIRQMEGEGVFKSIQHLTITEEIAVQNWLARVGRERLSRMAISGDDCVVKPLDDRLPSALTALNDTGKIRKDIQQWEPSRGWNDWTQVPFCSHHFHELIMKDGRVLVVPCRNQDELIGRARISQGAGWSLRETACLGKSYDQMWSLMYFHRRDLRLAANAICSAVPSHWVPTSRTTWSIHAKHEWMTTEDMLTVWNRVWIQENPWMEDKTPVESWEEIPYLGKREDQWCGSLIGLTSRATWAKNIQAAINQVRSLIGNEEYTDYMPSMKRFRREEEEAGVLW
Cytochrome P450 2D6, sequence (P10635 whole entry): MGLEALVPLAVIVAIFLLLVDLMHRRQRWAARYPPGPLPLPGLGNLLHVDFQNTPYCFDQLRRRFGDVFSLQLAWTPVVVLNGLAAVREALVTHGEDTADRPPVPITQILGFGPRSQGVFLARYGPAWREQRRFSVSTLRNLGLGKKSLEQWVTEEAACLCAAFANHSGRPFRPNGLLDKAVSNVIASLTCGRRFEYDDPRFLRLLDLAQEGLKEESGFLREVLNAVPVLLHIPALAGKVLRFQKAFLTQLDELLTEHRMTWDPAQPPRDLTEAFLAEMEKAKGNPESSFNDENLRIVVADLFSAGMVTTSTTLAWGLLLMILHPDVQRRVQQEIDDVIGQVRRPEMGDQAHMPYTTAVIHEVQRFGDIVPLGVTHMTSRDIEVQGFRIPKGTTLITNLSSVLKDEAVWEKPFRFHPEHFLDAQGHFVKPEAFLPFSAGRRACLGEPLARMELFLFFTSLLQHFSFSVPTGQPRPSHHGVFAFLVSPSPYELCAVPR

What is called AC50 is the concentration at which the activity in the assay is half-maximal. The term EC50 denotes the concentration giving half of the maximal effect. For orientation: IC50 means the concentration that inhibits the measured activity by half. As to `Cc1ccc(N2C(=O)NC(=O)/C(=C/c3ccc(OC(=O)c4cccs4)cc3)C2=O)cc1`, the AC50 in [1] was 0.64 µM (active). The EC50 in test [2] was 0.772 µM (active). Moreover, the IC50 in [3] was 55.4 µM (active).

A word on the CC50: it is the concentration at which the toxic effect on the cells reaches its halfway point. On to `CC(=O)Nc1ccc(S(=O)(=O)Nc2cccc(-c3nc4cc(C)ccc4o3)c2)cc1`, for which the CC50 in test [4] is 9.33 µM (active); in [5], > 25 µM (active).

With `O=C1NN(c2ccccc2)C(=O)C1=Cc1ccccc1O`, the concentration for half-maximal inhibition (IC50) in test [6] is 81.3 µM (active); in test [3], 34.6 µM (active).

As to `Nc1[nH]n(-c2ccccc2)c(=O)c1N=Nc1ccccc1`, the IC50 in [7] is > 100 µM (inactive); in test [8], > 100 µM (inactive); in test [9], 4.47 µM (active); in test [10], 20.2 µM (active).

With `COc1cccc(C(=O)OCC(=O)c2ccc(Br)s2)c1`, the IC50 in test [7] is 14.6 µM (active); in test [8], 21.6 µM (active); in test [9], 10.3 µM (active); in test [10], 26.8 µM (active).

Regarding `O=C(Nc1ccc(Cl)cc1)Nc1nccs1`, the 50% inhibitory concentration (IC50) is 14.6 µM (active) in [7], 15.5 µM (active) in test [8], 7.33 µM (active) in [9] and 21.7 µM (active) in [10]. Also, in test [11], the AC50 was 31.6 µM (inconclusive).

For `CNC[C@H](CC1CCCCC1)NC[C@H](NCCC1CCCC1)[C@H](C)O`, the cytotoxic concentration (CC50) in [5] was > 25 µM (active).

For the compound `CCOc1cc2c(cc1O)C(=NO)CC1C2CCC2(C)C(O)CCC12` (configuration not stated), in test [5], the cytotoxic concentration (CC50) was 4.99 µM (active).
